Results from PMC11328599, “Crystal structure of dihydroneopterin aldolase from Mycobacterium tuberculosis associated with 8-mercaptoguanine, and development of novel S8-functionalized analogues as inhibitors: Synthesis, enzyme inhibition, in vitro toxicity and antitubercular activity” (Journal of Enzyme Inhibition and Medicinal Chemistry, 2024).
Values after ≈ are worked out from the molar mass of the structure shown. Values joined by “and” are separate entries in the source; they are usually repeats but may differ in a detail not shown here. Equal entries are not always repeated. Where two headings read alike, the source gives them in different places.

Legend:
[1] = target: T1, MtFolB (Mycobacterium tuberculosis, UniProt P9WNC5); test: Mode of inhibition and inhibition constants on MtFolB aldolase activity (Lineweaver-Burk); assay type: biochemical; settings: towards substrate DHNP; for Ki: read-out: Kis DHNP
T1 construct: made in house
Description: The mode of inhibition and the inhibition constants (Ki and/or Kis) were defined for the compounds 3a-e. There are three categories for the inhibition mode: competitive, where inhibitor and substrate binding are mutually exclusive; non-competitive, if the inhibitor can bind to both the free enzyme and the enzyme-substrate complex; or uncompetitive, when the inhibitor binds only to the enzyme-substrate complex. For each compound, 3 curves were performed with fixed-varied inhibitor concentration and varying the DHNP concentration until saturation of enzyme activity. For the compound 3a the fixed-varied concentrations were 0.2 μM, 0.5 μM and 0.8 μM (varying DHNP 0.5 – 10 μM). For the compound 3b the fixed-varied concentrations were 0.1 µM (varying DHNP 0.2 – 10 µM); 0.3 μM (varying DHNP 0.5 – 10 μM) and 0.6 μM (varying DHNP 0.5 – 15 μM). For the compound 3c the fixed-varied concentrations were 0.3 μM, 0.6 μM and 0.9 μM (varying DHNP 0.5 – 10 μM). For the compound 3d the fixed-varied concentrations were 0.5 μM, 1 μM (varying DHNP 0.5 – 10 μM) and 2.5 μM (varying DHNP 1 – 10 μM). For the compound 3e the fixed-varied concentrations were 1.4 µM, 3.5 µM (varying DHNP 0.5 – 10 µM) and 7 µM (varying DHNP 1 – 10 µM). Furthermore, we performed a control experiment with 10% DMSO in the absence of inhibitors varying the DHNP concentration until saturation (0.2 – 10 µM). The straight-line patterns obtained were used to define the mode of inhibition. The diagnostic signature of a competitive inhibitor is a set of lines that intersect on the y-axis, for non-competitive inhibitors the pattern of intersection is to the left of the y-axis and for uncompetitive inhibitors the lines are parallel to each other. The inhibition constants were calculated using Equation (2) for competitive inhibitors or Equation (3) for non-competitive inhibitors, where [I] is the inhibitor concentration, [S] is the substrate concentration, KM is the Michaelis-Menten constant, Vmax is the maximum velocity, Kis is the inhibition constant for the enzyme-substrate complex, and Kii is the inhibition constant for the enzyme-substrate-inhibitor complex. (2) 1/v0=KM/Vmax(1+[I]/Kis)1/[S]+1/Vmax (3) 1/v0=KM/Vmax(1+[I]/Kis)1/[S]+1/Vmax(1+[I]/Kii)

[2] = tested on: M. tuberculosis H37Rv strain; test: Minimum inhibitory concentration, resazurin reduction microplate assay (REMA); assay type: cell-based; settings: Mycobacterium tuberculosis
[3] = physchem; assay type: physicochemical; settings: 25 °C, thermodynamic from solid
Description: The solubility of the compound 3e was evaluated under three pH conditions: pH 1.2 (HCl 0.1 M); pH 7.4 (PBS 1X); and pH 9.1 (NH4HCO3 0.1 M). For this assay, we prepared a suspension of compound 3e at 1 mg/mL in each buffer solution by vortexing it for 1 min. Then, the suspension was kept under constant shaking for 4 h at 25 °C. Subsequently, the suspension was centrifuged at 13,000 rpm for 15 min at 25 °C. The supernatant was quantified by ultra-high-performance liquid chromatography (UHPLC) using single-point calibration of a known concentration of the compound in DMSO. The experiment was performed in triplicate.

[4] = in vitro; assay type: cell-based; settings: % of cell viability ± SEM
Description: (§1) Cell viability assays in the presence of compound 3e were performed in both Vero (BCRJ code 0245) and HepG2 (BCRJ code 0291) cells using MTT (3-[4,5-dimethylthiazol-2-yl]-2,5 diphenyl tetrazolium bromide)[21] and neutral red uptake (NRU)[22] methods. Both cell lines were grown in Dulbecco’s Modified Eagle Medium (DMEM-Gibco, Grand Island, NY, USA) supplemented with 10% or 20% inactivated foetal bovine serum (FBS- Invitrogen) for Vero and HepG2, respectively, 1% penicillin (Gibco) and streptomycin (Gibco), and 0.1% fungizone (Gibco). The experiments were performed in 96-well plates. First, cells were seeded at 6 x 10^3 (Vero) or 7 x 10^3/well (HepG2) and incubated overnight at 37 °C under a 5% CO2 atmosphere. Then, the medium was removed and replaced with fresh medium containing the compound at a final concentration of 75 µM, 87.5 µM, or 100 µM with DMSO at a final concentration of 0.8%. Cells were incubated during 72 h at 37 °C under a 5% CO2 atmosphere. For the MTT assay, the medium was removed after the incubation and replaced with MTT reagent (Sigma-Aldrich) at 5 mg/mL, and then the cells were incubated for 4 h. DMSO was used to solubilise formazan crystals. The absorbance was measured at 570 nm using microplate reader (EZ Read 400 microplate reader, Biochrom, Cambridge, UK). Precipitated purple formazan crystals were directly proportional to the number of live cells with mitochondrial metabolism. For the NRU assay, after the incubation with the compound, the media was removed and 200 µL of neutral red dye solution (Sigma-Aldrich) at 25 µg/mL prepared in serum-free medium was added to each well. The plate was then incubated for 3 h at 37 °C under 5% CO2. After this time, cells were washed twice with PBS, followed by incubation with 100 μL of a desorb solution (ethanol/acetic acid/water, […]) for 30 min, with gentle shaking to extract neutral red dye from the viable cells. The absorbance was measured at 562 nm using microplate reader (EZ Read 400 microplate reader, Biochrom, Cambridge, UK). Treated control wells (0.8% DMSO) were used as references for maximum cell viability (100%). Three independent experiments were performed, and the data were expressed as the means of cell viability ± the standard error of the means. Statistical analysis was performed using one-way ANOVA analysis of variance followed by Dunett’s Multiple Comparison Test post-test using GraphPad Prism 9.0.0 (San Diego, CA, USA).

[5] = tested on: HepG2 cells; test: in vitro; assay type: cell-based; settings: for % of cell viability ± SEM: human, 72 h
Description: as §1

[6] = tested on: Vero cells; test: in vitro; assay type: cell-based; settings: for % of cell viability ± SEM: African green monkey, 72 h
Description: as §1

[7] = REMA, 7 days + 48 h resazurin, read-out: MIC
[8] = converted from µg/mL, read-out: MIC (equivalent)

T1 sequence (P9WNC5 whole entry): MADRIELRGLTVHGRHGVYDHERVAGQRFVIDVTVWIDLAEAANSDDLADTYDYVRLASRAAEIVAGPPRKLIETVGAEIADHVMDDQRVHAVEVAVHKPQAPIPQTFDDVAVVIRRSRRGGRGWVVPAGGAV

melting point	Structure (SMILES)	Inhibition mode [1]	Ki [1]	further results
289 to 291 °C (dec.)	C[C@@H](NC(=O)CSc1nc2c(=O)[nH]c(N)nc2[nH]1)C1CCCCC1 [Compound 3n, (R)-2-((2-amino-6-oxo-6,9-dihydro-1H-purin-8-yl)thio)-N-(1-cyclohexylethyl)acetamide]			
285 to 287 °C (dec.)	Nc1nc2[nH]c(SCC(=O)NC3CCC3)nc2c(=O)[nH]1 [Compound 3i, 2-((2-amino-6-oxo-6,9-dihydro-1H-purin-8-yl)thio)-N-cyclobutylacetamide]			
272 to 274 °C (dec.)	CN(C(=O)CSc1nc2c(=O)[nH]c(N)nc2[nH]1)C1CCCCC1 [Compound 3j, 2-((2-amino-6-oxo-6,9-dihydro-1H-purin-8-yl)thio)-N-cyclohexyl-N-methylacetamide]			
289 to 291 °C (dec.)	C[C@@H]1[C@H](NC(=O)CSc2nc3c(=O)[nH]c(N)nc3[nH]2)C[C@H]2C[C@@H]1C2(C)C [Compound 3k, 2-((2-amino-6-oxo-6,9-dihydro-1H-purin-8-yl)thio)-N-((1S,2S,3R,5R)-2,6,6-trimethylbicyclo [3.1.1]heptan-3-yl)acetamide]			
	NNC(=O)c1ccncc1 [INH, Isoniazid]			MIC [2, 7]: 0.31 µg/mL; MIC [2, 8]: 2.3 µM
292 to 294 °C (dec.)	Nc1nc2[nH]c(SCC(=O)NC3CCCCCC3)nc2c(=O)[nH]1 [Compound 3f, 2-((2-amino-6-oxo-6,9-dihydro-1H-purin-8-yl)thio)-N-cycloheptylacetamide]			
282 to 284 °C (dec.)	CC1CCC(NC(=O)CSc2nc3c(=O)[nH]c(N)nc3[nH]2)CC1 (centres unmarked) [Compound 3g, 2-((2-amino-6-oxo-6,9-dihydro-1H-purin-8-yl)thio)-N-(4-methylcyclohexyl)acetamide]			
262 to 263 °C (dec.)	Nc1nc2[nH]c(SCC(=O)NCC3CCCCC3)nc2c(=O)[nH]1 [Compound 3l, 2-((2-amino-6-oxo-6,9-dihydro-1H-purin-8-yl)thio)-N-(cyclohexylmethyl)acetamide]			
280 to 282 °C (dec.)	Nc1nc2[nH]c(SCC(=O)NC3CCCC3)nc2c(=O)[nH]1 [Compound 3h, 2-((2-amino-6-oxo-6,9-dihydro-1H-purin-8-yl)thio)-N-cyclopentylacetamide]			
294 to 296 °C (dec.)	C[C@H](NC(=O)CSc1nc2c(=O)[nH]c(N)nc2[nH]1)C1CCCCC1 [Compound 3m, (S)-2-((2-amino-6-oxo-6,9-dihydro-1H-purin-8-yl)thio)-N-(1-cyclohexylethyl)acetamide]			

Structure (SMILES)	melting point	Inhibition mode [1]	Ki [1]	further results
Nc1nc2[nH]c(SCC(=O)Nc3ccc(C(=O)N4CCCC4)cc3)nc2c(=O)[nH]1 [Compound 3c, 2-((2-amino-6-oxo-6,9-dihydro-1H-purin-8-yl)thio)-N-(4-(pyrrolidine-1-carbonyl)phenyl)acetamide]	237 to 239 °C (dec.)	Non-competitive	300 ± 200 nM	Kii DHNP [1]: 1.5 µM and 1.5 ± 0.9 µM
Nc1nc2[nH]c(SCC(=O)Nc3ccc(N4CCOCC4)cc3)nc2c(=O)[nH]1 [Compound 3b, 2-((2-amino-6-oxo-6,9-dihydro-1H-purin-8-yl)thio)-N-(4-morpholinophenyl)acetamide]	326 to 328 °C (dec.)	Competitive	300 ± 80 nM	
Nc1nc2[nH]c(SCC(=O)Nc3ccc(N4CCCCC4)cc3)nc2c(=O)[nH]1 [Compound 3a, 2-((2-amino-6-oxo-6,9-dihydro-1H-purin-8-yl)thio)-N-(4-(piperidin-1-yl)phenyl)acetamide]	258 to 260 °C (dec.)	Competitive	400 ± 100 nM	
Nc1nc2[nH]c(SCC(=O)Nc3cccc4c3CCCC4)nc2c(=O)[nH]1 [Compound 3e, 2-((2-amino-6-oxo-6,9-dihydro-1H-purin-8-yl)thio)-N-(5,6,7,8-tetrahydronaphthalen-1-yl)acetamide]	260 to 261 °C (dec.)	Non-competitive	1400 ± 300 nM	solubility at 4 h ([3]; pH 1.2, simulated gastric fluid): 612 µM (≈ 227 µg/mL); solubility at 4 h ([3]; pH 7.4, aqueous buffer): 1.1 µM (≈ 0.407 µg/mL); solubility at 4 h ([3]; pH 9.1, aqueous buffer): 37.6 µM (≈ 13.9 µg/mL); viability at 72 h, 75 µM ([4]; African green monkey): 115 ± 2%; viability at 72 h, 87.5 µM ([4]; African green monkey): 94 ± 10%; viability at 72 h, 100 µM ([4]; African green monkey): 94 ± 3%; viability at 72 h, 75 µM ([4]; human): 108 ± 3%; viability at 72 h, 87.5 µM ([4]; human): 97 ± 2%; viability at 72 h, 100 µM ([4]; human): 96 ± 2%; toxicity [5]: no apparent toxicity; % of cell viability ± SEM ([5]; 75 µM): 100 ± 6%; % of cell viability ± SEM ([5]; 87.5 µM): 111 ± 3%; % of cell viability ± SEM ([5]; 100 µM): 104 ± 2%; toxicity [6]: no apparent toxicity; % of cell viability ± SEM ([6]; 75 µM): 96 ± 1%; % of cell viability ± SEM ([6]; 87.5 µM): 102 ± 3%; % of cell viability ± SEM ([6]; 100 µM): 96 ± 2%; Kii DHNP [1]: 6.3 µM and 6.3 ± 1.2 µM; MIC [2, 7]: 40 µg/mL; MIC [2, 8]: 108 µM
Nc1nc2[nH]c(SCC(=O)Nc3ccc4c(c3)CCCC4)nc2c(=O)[nH]1 [Compound 3d, 2-((2-amino-6-oxo-6,9-dihydro-1H-purin-8-yl)thio)-N-(5,6,7,8-tetrahydronaphthalen-2-yl)acetamide]	294 to 295 °C (dec.)	Competitive	200 ± 50 nM	
